Experimental data from patent publication US20170081368A1, “PEPTIDES AS OXYTOCIN AGONISTS” (Hoffmann-La Roche Inc., priority 2014, published 2017).
*1 amine or outer side, *2 acyl side, *3 side chain or, on linkers, in order; H or OH if unused. Where a SMILES comes first, the peptide text is derived from it. Bridges are numbered along the chain shown (N, C = ends). [ ]: non-standard residue; d: D form. Hcy(O2-CH2CH2CO) = O=C([C@H](CCS(=O)(=O)CCC(=O)[*:3])N[*:1])[*:2]; αMeL = CC(C)C[C@](C)(N)C(=O)O; Chg = N[C@H](C(=O)O)C1CCCCC1; NcPrGly = O=C(O)CNC1CC1

Assays:
Format in all cases: cell-based
human V1a receptor = target: T1, human V1a receptor (Homo sapiens, UniProt P37288); experiment: Calcium flux assay (FLIPR) in CHO cells expressing human V1a; conditions: for EC50: agonist mode, CHO cells, calcium flux FLIPR, read-out: hV1a EC50
T1 construct: expressed in transfected cells
T1 sequence (P37288 whole entry): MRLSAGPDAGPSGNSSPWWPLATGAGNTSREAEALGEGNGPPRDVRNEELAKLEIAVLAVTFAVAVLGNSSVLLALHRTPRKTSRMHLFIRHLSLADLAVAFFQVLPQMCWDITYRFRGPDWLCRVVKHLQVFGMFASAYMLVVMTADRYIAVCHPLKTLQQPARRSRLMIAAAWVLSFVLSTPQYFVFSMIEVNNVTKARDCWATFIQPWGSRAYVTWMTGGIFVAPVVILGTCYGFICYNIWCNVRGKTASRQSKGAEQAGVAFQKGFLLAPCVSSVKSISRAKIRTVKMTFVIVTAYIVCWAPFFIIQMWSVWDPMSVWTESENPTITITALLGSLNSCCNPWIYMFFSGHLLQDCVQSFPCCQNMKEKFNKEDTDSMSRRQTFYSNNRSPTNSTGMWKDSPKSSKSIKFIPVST
Description: (§1) Chines Hamster Ovary (CHO) cells were transfected with expression plasmids encoding either the human Vla, the human Oxytocin (OTR) or the humanV2 receptor, the later in combination with the chimeric Gqs5 G protein to redirect the signal to Calcium flux. Stable cells were cloned by limiting dilution to yield monoclonal cell lines expressing either human Vla, human V2+Gqs5 or human OTR receptors and selected based on functional responses detected on a fluorometric imaging plate reader (FLIPR) detecting Calcium flux in the cell after receptor activation. The stable cell lines were grown in F-12 K Nutrient Mixture (Kaighns Modification), containing 10% foetal bovine serum (FBS), 1% penicillin-streptomycin, 1% L-glutamate, 200 ug/ml Geneticin at 37° C. in a 10% CO2 incubator at 95% humidity.
(§2) Calcium Flux Assays Using Fluorescent Imaging (Fluorometric Imaging Plate Reader, FLIPR)
(§3) On the afternoon before the assay, cells were plated at a density of 50,000 cells/well into black 96 well plates with clear bottoms to allow cell inspection and fluorescence measurements from the bottom of each well. The density of cells was sufficient to yield a confluent monolayer the next day. Hanks balanced salt solution, without phenol red, containing 20 mM HEPES (pH 7.3) and 2.5 mM probenecid (assay buffer) was prepared fresh for each experiment. Compound dilutions were made using a Beckman Biomek 2000 laboratory automation workstation, in assay buffer containing 1% DMSO. The dye-loading buffer consisted of a final concentration of 2 μM Fluo-4-AM (dissolved in DMSO and pluronic acid) in assay buffer. The existing culture media was removed from the wells and 100 μl of the dye-loading buffer was added to each well and incubated for approximately 60 min at 37° C. in a 5% CO2 incubator at 95% humidity. Once dye-loaded, the cells were washed thoroughly on an Embla cell washer with the assay buffer to remove any unincorporated dye. Exactly 100 μl assay buffer was left in each well.
(§4) Each 96 well plate containing dye-loaded cells was placed into the FLIPR machine and the laser intensity set to a suitable level to detect low basal fluorescence. To test compounds as agonists, 25 μl diluted compound was added to the plate 10 seconds into the fluorescent measurements and fluorescent response was recorded for 5 minutes. The fluorescence data was normalized to the endogenous full agonist dose-response set at 100% for the maximum response and 0% for the minimum. Each agonist concentration-response curve was constructed using a four parameter logistic equation with Microsoft Excel XLFit as follows: Y=Minimum+((Maximum−Minimum)/(1+10^(LogEC50−X)nH)), where y is the % normalized fluorescence, minimum is the minimum y, maximum is the maximum y, log EC50 is the log10 concentration which produces 50% of the maximum induced fluorescence, x is the log10 of the concentration of the agonist compound and H is the slope of the curve (the Hill Coefficient). The maximum value gives the efficacy of the agonist test compound in percentage. The concentration of agonist that produced a half-maximal response is represented by the EC50 value, the logarithm of which yielded the pEC50 value.

human V2 receptor = target: T2, human V2 receptor (Homo sapiens, UniProt P30518); experiment: Calcium flux assay (FLIPR) in CHO cells expressing human V2+Gqs5; conditions: for Emax: CHO, maximum response normalized to endogenous full agonist = 100%, read-out: hV2 efficacy; for EC50: agonist mode, CHO cells with chimeric Gqs5, calcium flux FLIPR, read-out: hV2 EC50
T2 construct: expressed in transfected cells
T2 sequence (P30518 whole entry): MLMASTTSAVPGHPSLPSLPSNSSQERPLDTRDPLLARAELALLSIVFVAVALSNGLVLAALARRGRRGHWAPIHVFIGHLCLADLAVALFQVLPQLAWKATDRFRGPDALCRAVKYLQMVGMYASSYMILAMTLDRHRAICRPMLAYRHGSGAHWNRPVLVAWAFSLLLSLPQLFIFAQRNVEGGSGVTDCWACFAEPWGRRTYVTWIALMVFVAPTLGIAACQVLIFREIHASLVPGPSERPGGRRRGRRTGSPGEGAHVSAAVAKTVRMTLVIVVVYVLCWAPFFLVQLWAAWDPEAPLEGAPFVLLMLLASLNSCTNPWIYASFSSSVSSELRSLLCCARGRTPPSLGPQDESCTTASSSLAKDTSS
Description: as §1, §2, §3, §4

[1] = target: T3, human Oxytocin (OTR) receptor (Homo sapiens, UniProt P30559); experiment: Calcium flux assay (FLIPR) in CHO cells expressing human OTR; conditions: for Emax: CHO, maximum response normalized to endogenous full agonist = 100%, read-out: hOT efficacy; for EC50: agonist mode, CHO cells, calcium flux FLIPR, read-out: hOT EC50
T3 construct: expressed in transfected cells
T3 sequence (P30559 1-389): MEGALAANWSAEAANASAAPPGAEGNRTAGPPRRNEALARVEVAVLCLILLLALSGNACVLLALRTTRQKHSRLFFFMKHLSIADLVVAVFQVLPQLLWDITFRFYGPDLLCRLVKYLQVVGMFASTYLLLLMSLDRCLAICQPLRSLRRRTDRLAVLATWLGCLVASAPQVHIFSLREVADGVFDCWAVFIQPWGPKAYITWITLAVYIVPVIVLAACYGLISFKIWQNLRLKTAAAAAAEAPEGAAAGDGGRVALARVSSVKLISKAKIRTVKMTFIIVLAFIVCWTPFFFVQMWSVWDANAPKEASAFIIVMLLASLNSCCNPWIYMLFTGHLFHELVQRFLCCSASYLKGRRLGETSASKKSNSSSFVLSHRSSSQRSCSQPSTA
Description: as §1, §2, §3, §4

| Compound | EC50 (human V1a receptor) | Emax (human V2 receptor) | EC50 (human V2 receptor) | Emax [1] | EC50 [1] | hV1a efficacy (human V1a receptor; maximum response normalized to endogenous full agonist = 100%) |
| --- | --- | --- | --- | --- | --- | --- |
| CC[C@H](C)[C@@H]1NC(=O)[C@H](Cc2ccc(O)cc2)NC(=O)CCS(=O)(=O)CC[C@@H](C(=O)N2CCC[C@H]2C(=O)N[C@@H](CC(C)C)C(=O)NCC(N)=O)NC(=O)[C@H](CC(N)=O)NC(=O)[C@H](CCC(N)=O)NC1=O [Example 1] (HELM PEPTIDE1{Y.I.Q.N.[O=C([C@H](CCS(=O)(=O)CCC(=O)[*:3])N[*:1])[*:2]].P.L.G.[am]}$PEPTIDE1,PEPTIDE1,1:R1-5:R3$$$V2.0) | 1.63 µM | 101% | 2.98 µM | 120% | 0.0008 µM | – |
| CC[C@H](C)[C@@H]1NC(=O)[C@H](Cc2ccc(O)cc2)NC(=O)CCS(=O)(=O)CC[C@@H](C(=O)N(C)CC(=O)N[C@@H](CC(C)C)C(=O)NCC(N)=O)NC(=O)[C@H](CC(N)=O)NC(=O)[C@H](CCC(N)=O)NC1=O [Example 2] (HELM PEPTIDE1{Y.I.Q.N.[O=C([C@H](CCS(=O)(=O)CCC(=O)[*:3])N[*:1])[*:2]].[Sar].L.G.[am]}$PEPTIDE1,PEPTIDE1,1:R1-5:R3$$$V2.0) | > 27 µM | 86% | 3.98 µM | 107% | 0.0008 µM | – |
| CC[C@H](C)[C@@H]1NC(=O)[C@H](Cc2ccc(O)cc2)NC(=O)CCS(=O)(=O)CC[C@@H](C(=O)N(CC(=O)N[C@@H](CC(C)C)C(=O)NCC(N)=O)C2CC2)NC(=O)[C@H](CC(N)=O)NC(=O)[C@H](CCC(N)=O)NC1=O [Example 27] (HELM PEPTIDE1{Y.I.Q.N.[O=C([C@H](CCS(=O)(=O)CCC(=O)[*:3])N[*:1])[*:2]].[O=C(CN(C1CC1)[*:1])[*:2]].L.G.[am]}$PEPTIDE1,PEPTIDE1,1:R1-5:R3$$$V2.0) | > 27 µM | 110% | 3.73 µM | 125% | 0.0005 µM | – |
| CC[C@H](C)[C@@H]1NC(=O)[C@H](Cc2ccc(O)cc2)NC(=O)CCS(=O)(=O)CC[C@@H](C(=O)N(CC(=O)N[C@@](C)(CC(C)C)C(=O)NCC(N)=O)C2CC2)NC(=O)[C@H](CC(N)=O)NC(=O)[C@H](CCC(N)=O)NC1=O [Example 28] (YIQN[Hcy(O2-CH2CH2CO)][NcPrGly][αMeL]G-NH2; lactam N-5) | > 27 µM | 129% | 9.42 µM | 105% | 0.0007 µM | – |
| CC[C@H](C)[C@@H]1NC(=O)[C@H](Cc2ccc(O)cc2)NC(=O)CCS(=O)(=O)CC[C@@H](C(=O)N(CC(=O)N[C@H](C(=O)NCC(N)=O)C2CCCCC2)C2CC2)NC(=O)[C@H](CC(N)=O)NC(=O)[C@H](CCC(N)=O)NC1=O [Example 32] (YIQN[Hcy(O2-CH2CH2CO)][NcPrGly][Chg]G-NH2; lactam N-5) | 2.23 µM | 155% | 2.36 µM | 120% | 0.00026 µM | 38% |
